Test results published in patent US20230278987A1, “Antimicrobial Compounds and Methods” (Curza Global, LLC, priority 2019, published 2023).
pIC50: −log10 of the molar value. Converted amounts (≈) assume the structure as drawn. Counter-ions that a name gives are not always drawn. Like-named read-outs stand apart in the source and are kept apart here.

Tests used:
[1] = tested on: E.coli S30 extract (bacterial protein synthesis); assay: E.coli S30 extract: inhibition of bacterial protein synthesis (luciferase); type: biochemical; conditions: 37° C. for 1 hour
Summary of the method: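 E. coli S30 circular-DNA coupled transcription-translation of pBESTluc luciferase in presence of 2-fold serial compound dilutions (8 points). Incubated 1 h at 37 °C, stopped at 4 °C, then luminescence read. Percent inhibition versus no-inhibitor controls, with no-DNA background.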

E.faecalis (Ef) = assay: Broth microdilution MIC against E.faecalis (Ef); type: cell-based; conditions: Enterococcus faecalis
Summary of the method: (§1)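 CLSI broth microdilution with 8 two-fold compound dilutions in cation-adjusted Mueller-Hinton broth, optionally supplemented with 6.25 or 25 mM sodium bicarbonate or 0–50% heat-inactivated human serum. Inoculum 5 × 10^4 CFU/well from 0.5 McFarland suspensions, tested in triplicate.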

P.aeruginosa (Pa) = assay: Broth microdilution MIC against P.aeruginosa (Pa); type: cell-based; conditions: Pseudomonas aeruginosa
Summary of the method: as §1

E.coli (Ec) = assay: Broth microdilution MIC against E.coli (Ec); type: cell-based; conditions: Escherichia coli
Summary of the method: as §1

[2] = target: Rabbit Reticulocyte Lysate (eukaryotic protein synthesis); assay: Rabbit Reticulocyte Lysate: inhibition of eukaryotic protein synthesis (luciferase); type: biochemical; conditions: 30° C. for 90 minutes, read-out: retic. IC50
Summary of the method: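 Nuclease-treated rabbit reticulocyte lysate translating luciferase control RNA, incubated 90 min at 30° C with eight 2-fold compound dilutions. Luminescence measured after adding luciferase reagent; % inhibition relative to no-inhibitor wells, with no-RNA wells as background.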

A.baumannii (Ab) = assay: Broth microdilution MIC against A.baumannii (Ab); type: cell-based; conditions: Acinetobacter baumannii
Summary of the method: as §1

S.aureus (Sa) = assay: Broth microdilution MIC against S.aureus (Sa); type: cell-based; conditions: Staphylococcus aureus
Summary of the method: as §1

[3] = CAMHB supplemented with sodium bicarbonate 6.25 mM, read-out: Ef +bicarb 6.25 (MIC)
[4] = CAMHB supplemented with sodium bicarbonate 6.25 mM, read-out: Pa +bicarb 6.25 (MIC)
[5] = CAMHB supplemented with sodium bicarbonate 6.25 mM, read-out: E. coli + bicarb 6.25 (MIC)
[6] = CAMHB supplemented with sodium bicarbonate 6.25 mM, read-out: Ab +bicarb 6.25 (MIC)
[7] = CAMHB supplemented with sodium bicarbonate 6.25 mM, read-out: Sa + bicarb 6.25 (MIC)
[8] = read-out: Ef +bicarb 6.25 (MIC)
[9] = read-out: Pa +bicarb 6.25 (MIC)
[10] = read-out: E. coli + bicarb 6.25 (MIC)
[11] = read-out: Ab +bicarb 6.25 (MIC)
[12] = read-out: Sa + bicarb 6.25 (MIC)

Structure (SMILES)	pIC50 [1]	MIC (E.faecalis (Ef); [3]) [µg/mL]	MIC (P.aeruginosa (Pa); [4]) [µg/mL]	MIC (E.coli (Ec); [5]) [µg/mL]	pIC50 [2]	MIC (A.baumannii (Ab); [6]) [µg/mL]	MIC (S.aureus (Sa); [7]) [µg/mL]	also measured
CC(C)(N)C(=O)N1CCN(C(=O)Nc2ccn(-c3ccc4c(c3)CCN(C3CCC(N)CC3)C4)c(=O)n2)CC1 (stereo not drawn) [Compound 35]	> 6.30	> 32	> 32	< 8	≤ 6.00	> 32	< 8	–
CC(C)(N)C(=O)N1CCN(C(=O)Nc2ccn(-c3ccc4c(c3)CC(N[C@H]3CC[C@H](N)C3)C4)c(=O)n2)CC1 (stereo partly drawn) [Compound 36, Hydrochloride Salt]	> 6.30	> 32	> 32	< 8	> 6.30	> 32	8 to 32	–
CC(C)(N)C(=O)N1CCN(C(=O)Nc2ccn(-c3ccc4c(c3)CC(NC[C@H]3C[C@H](N)C3)C4)c(=O)n2)CC1 (stereo partly drawn) [Compound 37, Hydrochloride Salt]	> 6.30	> 32	> 32	< 8	≤ 6.00	> 32	8 to 32	–
CC(C)(N)C(=O)N1CCN(C(=O)Nc2ccn(-c3ccc4c(c3)CC(N[C@H]3CC[C@H](N)CC3)C4)c(=O)n2)CC1 (stereo partly drawn) [Compound 38, Hydrochloride Salt]	> 6.30	> 32	> 32	< 8	≤ 6.00	> 32	8 to 32	–
CC(C)(N)C(=O)N1CCN(C(=O)Nc2ccn(-c3ccc4c(c3)CCC(N3CC(N)C3)C4)c(=O)n2)CC1 (stereo not drawn) [Compound 39]	6.00 to 6.30	> 32	> 32	8 to 32	≤ 6.00	> 32	8 to 32	–
CC(C)(N)C(=O)N1CCN(C(=O)Nc2ccn(-c3ccc4c(c3)CCC(N3CC(CN)C3)C4)c(=O)n2)CC1 (stereo not drawn) [Compound 40, Hydrochloride Salt]	> 6.30	8 to 32	> 32	< 8	≤ 6.00	> 32	< 8	–
CC(C)(N)C(=O)N1CCN(C(=O)Nc2ccn(-c3ccc4c(c3)CCC(N3CCC(CCN)CC3)C4)c(=O)n2)CC1 (stereo not drawn) [Compound 42, 4-(2-Amino-2-methylpropanoyl)-N-(1-(6-(4-(2-aminoethyl)piperidin-1-yl)-5,6,7,8-tetrahydronaphthalen-2-yl)-2-oxo-1,2-dihydropyrimidin-4-yl)piperazine-1-carboxamide hydrochloride salt]	≤ 6.00	–	–	–	≤ 6.00	–	–	MIC (E.faecalis (Ef); [8]): > 32 µg/mL; MIC (P.aeruginosa (Pa); [9]): > 32 µg/mL; MIC (E.coli (Ec); [10]): < 8 µg/mL; MIC (A.baumannii (Ab); [11]): > 32 µg/mL; MIC (S.aureus (Sa); [12]): 8 to 32 µg/mL
CC(C)(N)C(=O)N1CCN(C(=O)Nc2ccn(-c3ccc4c(c3)CCC(N3CCCC(N)CC3)C4)c(=O)n2)CC1 (stereo not drawn) [Compound 43]	> 6.30	> 32	> 32	< 8	≤ 6.00	> 32	< 8	MIC (E.faecalis (Ef); CAMHB supplemented with sodium bicarbonate 25 mM, read-out: Ef +bicarb 25 (MIC)): < 8 µg/mL; MIC (P.aeruginosa (Pa); CAMHB supplemented with sodium bicarbonate 25 mM, read-out: Pa +bicarb 25 (MIC)): 8 to 32 µg/mL (≈ 14.5 to 58.1 µM); MIC (E.coli (Ec); CAMHB supplemented with sodium bicarbonate 25 mM, read-out: E.coli + bicarb 25 (MIC)): < 8 µg/mL; MIC (A.baumannii (Ab); CAMHB supplemented with sodium bicarbonate 25 mM, read-out: Ab +bicarb 25 (MIC)): 8 to 32 µg/mL (≈ 14.5 to 58.1 µM); MIC (S.aureus (Sa); CAMHB supplemented with sodium bicarbonate 25 mM, read-out: Sa + bicarb 25 (MIC)): < 8 µg/mL
COC(=O)N[C@H]1CC[C@H](NC2CCc3cc(-n4ccc(NC(=O)N5CCN(C(=O)C(C)(C)N)CC5)nc4=O)ccc3C2)C1 (stereo partly drawn) [Compound 45, Methyl ((1S,3S)-3-((6-(4-(4-(2-amino-2-methylpropanoyl)piperazine-1-carboxamido)-2-oxopyrimidin-1(2H)-yl)-1,2,3,4-tetrahydronaphthalen-2-yl)amino)cyclopentyl)Carbamate Hydrochloride Salt]	≤ 6.00	–	–	–	≤ 6.00	–	–	MIC (E.faecalis (Ef); [8]): > 32 µg/mL; MIC (P.aeruginosa (Pa); [9]): > 32 µg/mL; MIC (E.coli (Ec); [10]): > 32 µg/mL; MIC (A.baumannii (Ab); [11]): > 32 µg/mL; MIC (S.aureus (Sa); [12]): > 32 µg/mL
CC(C)(N)C(=O)N1CCN(C(=O)Nc2ccn(-c3ccc4c(c3)CN([C@H]3CC[C@H](N)CC3)C4)c(=O)n2)CC1 [Compound 46, 4-(2-amino-2-methylpropanoyl)-N-(1-(2-((trans)-4-aminocyclohexyl)isoindolin-5-yl)-2-oxo-1,2-dihydropyrimidin-4-yl)piperazine-1-carboxamide hydrochloride salt]	> 6.30	–	–	–	≤ 6.00	–	–	MIC (E.faecalis (Ef); read-out: Ef +bicarb 25 (MIC)): 8 to 32 µg/mL; MIC (P.aeruginosa (Pa); read-out: Pa +bicarb 25 (MIC)): 8 to 32 µg/mL; MIC (E.coli (Ec); read-out: E.coli + bicarb 25 (MIC)): < 8 µg/mL; MIC (A.baumannii (Ab); read-out: Ab +bicarb 25 (MIC)): 8 to 32 µg/mL; MIC (S.aureus (Sa); read-out: Sa + bicarb 25 (MIC)): < 8 µg/mL
